Experimental data published in US20140308261A1, “HLA-DR7 HY epitope and method for treating leukaemia” (Etablissement Français du Sang, priority 2011, published 2014).

Test system: CD4^+ T-lymphocytes
Test: Cytokine mRNA expression profile after stimulation of CD4+ T-lymphocytes with short peptides from QR-40 pulsed on HLA-DR7 EBV cells
Format: cell-based, human
Text: The total RNA of the clones or cell lines was isolated from 1×10^6 cells by using the Rnagent kit (Promega, Madison, Wis., United States). The total RNA was converted to single stranded cDNA by using an oligo (dT) primer (Amersham Pharmacia Biotech, Orsay, France) and the reverse transcriptase of the avian myeloblastosis virus, in conformance with the manufacturer's specifications (Promega).
HY-specific CD4^+ T-lymphocytes were stimulated, each with […] EBV-B LCL transduced with the HY gene. The proliferation and production of IFN-γ were measured by the incorporation of ^3H-[methyl-thymidine] on day 3, and ELISA on day 1. To map the precise T-lymphocyte epitope restricted to the MHC class II, the inventors synthesized several long peptides with a potential bond with DRB1*0701 encoded in the RPS4Y regions which are different from RPS4X, based on several databases for MHC peptide binding, such as SYFPEITHI, Net-MHC, Propred and HotSpot Hunter. These peptides were tested at various concentrations: from 100 μM to 10 nM, using […] EBV-B-LCLs that express the HLA-DRB1*0701 molecule in the form of APC. The short peptide in question was identified using a series of peptides of 15 amino acids, also identified from these databases, and which are present in the long peptide which induces a positive response.
The inventors were therefore able to identify TGKIINFIKFDTGNL (SEQ ID NO: 1) as the HY peptide epitope recognized by the CD4^+ T-lymphocytes (FIG. 6). […] It is interesting to note that the cloned T-lymphocytes presented the same cytokine profile as the T-lymphocyte cell line.

[1] = female HLA-DR7 EBV cells pulsed with peptide

Row | Sequence | FoxP3/CD3ε mRNA ratio (peptide 1 μM) | IFNγ/CD3ε mRNA ratio (peptide 1 μM) | IL2/CD3ε mRNA ratio (peptide 1 μM) | FoxP3/CD3ε mRNA ratio (peptide 10 μM) | IFNγ/CD3ε mRNA ratio (peptide 10 μM) | IL2/CD3ε mRNA ratio (peptide 10 μM) | stimulation of the CD4+ T-lymphocytes by 15-mer peptides in QR-40 (in words) (Table 9) | FoxP3 mRNA response (in words) (at 1 μM) | IFNγ mRNA induction (in words) [1] | IL-2 mRNA expression (in words) [1]
1 | TGNVCMVIAGANLGRVG (Peptide TG17-2) [short peptide tested with the QR-40 peptides] | 0.23 | 0.009 | 0.0047 | 0.3 | 0.5 | 0.01 | – | – | – | –
2 | TGKIINFIKFDTGNL (peptide TL15) [HY epitopic 15-mer peptide from RPS4Y presented by HLA-DR7] | 0.42 | 9.91 | 0.06 | 0.44 | 12.63 | 0.23 | stimulated the cells | highest FoxP3 mRNA response | specific IFNγ induction | low IL-2 mRNA expression
3 | TGNLCMVIGGANLGRVG (Peptide TG17-1) [short peptide from peptide QR-40] | 0.12 | 0.11 | 0.006 | 0.32 | 0.11 | 0.02 | – | – | – | –
4 | GKIINFIKFDTGNLCMV (Peptide GV17) [short peptide from peptide QR-40] | 0.12 | 0.12 | 0.02 | 0.27 | 0.82 | 0.02 | – | – | – | –
